Measurements as given in patent US12630550B2, “Pharmacophore for trail induction” (THE SCRIPPS RESEARCH INSTITUTE, priority 2014, dated 2026).

System: TRAIL mRNA expression
Conditions: RAW 264.7; doses as high as 10 μM or prolonged exposure
Description: RAW 264.7 cells (ATCC TIB-71) were maintained in growth medium of Dulbecco's Modified Eagle's Medium (DMEM with 4.5 g/L glucose and pyruvate, Gibco BRL, Invitrogen Corp., USA) supplemented with L-glutamine, penicillin/streptomycin, non-essential amino acids (100× stocks, Invitrogen Corp.), 10 mM HEPES, pH 7.4 (1 M stock, Invitrogen), and 10% Fetal Bovine Serum (FBS, Hyclone); (V. V. Kravchenko, R. J. Ulevitch, G. F. Kaufmann, Methods Mol. Biol. 2011, 692, 133-145).
Cells were plated in 6-well plates (Corning Costar 3506) diluted 1:5 in 3 mL growth medium, media was changed after cells had adhered. After 12 h incubation, cells were treated with described concentration of compound in DMSO, and incubated in the presence of that compound or vehicle for the described amount of time. At this time, media was removed and cells were treated with TRIzol reagent (Life Technologies), and RNA extracted via included protocol. RNA concentration determined using a Hitachi U-2000 UV-Vis Spectrophotometer and samples diluted to 12 μg/5 μL in H2O. […]

Cc1ccccc1CN1C2=NCCN2C(=O)C2=C1CCN(Cc1ccccc1)C2 [Compound 1, 7-Benzyl-10-(2-methylbenzyl)-2,6,7,8,9,10-hexahydroimidazo[1,2-a]pyrido[4,3-d]pyrimidin-5(3H)-one, reference compound]
change in TRAIL mRNA expression over controls: No change in TRAIL mRNA expression over controls
